Results from ChEMBL document CHEMBL3526069, “Human pharmacokinetic prediction of UDP-glucuronosyltransferase substrates with an animal scale-up approach” (Drug Metab Dispos, 2011).

Columns and labels:
in vitro [1] = conditions: rat, plasma
Description: (§1) Fraction unbound in rat plasma by ultracentrifugation method

[2] = Drug metabolism in bile duct-cannulated dog assessed as glucuronide concentration in bile and urine at 0.2 mg/kg, iv up to 24 hrs by LC/MS/MS analysis; format: ADME, organism-based, Canis lupus familiaris; design: dose 0.2 mg/kg, route intravenous; conditions: in vivo
[3] = Drug metabolism in bile duct-cannulated rat assessed as glucuronide concentration in bile and urine at 0.2 mg/kg, iv up to 24 hrs by LC/MS/MS analysis; format: ADME, organism-based; design: dose 0.2 mg/kg, route intravenous; conditions: in vivo
clinical [4] = conditions: human, in vivo
[5] = Drug metabolism in bile duct-cannulated cynomolgus monkey assessed as glucuronide concentration in bile and urine at 0.2 mg/kg, iv up to 24 hrs by LC/MS/MS analysis; conditions: in vivo
clinical [6] = conditions: human, in vivo; remark: listed apart in the source
Description: (§2) Volume of distribution at steady state in human

[7] = Drug metabolism in human assessed as glucuronide concentration in urine
[8] = Plasma clearance in po dosed human; conditions: plasma
[9] = Drug metabolism in gallbladder-cannulated mouse assessed as glucuronide concentration in bile and urine at 0.2 mg/kg, iv up to 24 hrs by LC/MS/MS analysis; format: ADME, organism-based; design: dose 0.2 mg/kg, route intravenous; conditions: in vivo
in vitro [10] = conditions: rhesus monkey, plasma
Description: Fraction unbound in monkey plasma by ultracentrifugation method

in vitro [11] = conditions: dog, plasma
Description: Fraction unbound in dog plasma by ultracentrifugation method

[12] = Plasma clearance in human; conditions: plasma
in vitro [13] = conditions: human, plasma
Description: (§3) Fraction unbound in human plasma by ultracentrifugation method

in vitro [14] = conditions: human
Description: Ratio of drug level in blood to plasma in human

in vitro [15] = conditions: rat
Description: Ratio of drug level in blood to plasma in rat

in vitro [16] = conditions: mouse, plasma
Description: Fraction unbound in mouse plasma by ultracentrifugation method

in vitro [17] = conditions: dog
Description: Ratio of drug level in blood to plasma in dog

in vitro [18] = conditions: mouse
Description: Ratio of drug level in blood to plasma in mouse

in vitro [19] = conditions: rhesus monkey
Description: Ratio of drug level in blood to plasma in monkey

Homo sapiens [20] = species on record: Homo sapiens; conditions: in vivo
Plasma [21] = conditions: rat
Description: as §1

Homo sapiens [22] = species on record: Homo sapiens; conditions: in vivo; remark: listed apart in the source
Description: as §2

Plasma [23] = conditions: human
Description: as §3

Compound: C[C@H]1COc2c(N3CCN(C)CC3)c(F)cc3c(=O)c(C(=O)O)cn1c23.Cl [LEVOFLOXACIN HYDROCHLORIDE]
- fraction unbound (in vitro [1]): 0.826
- Fm [2]: 0.061
- Fm [3]: 0.644
- half-life (clinical [4]): 7.3 h
- Fm [5]: 0.82
- Vd (clinical [6]): 1.2 L/kg
- Fm [7]: < 0.015
- CL/F [8]: 1.9 mL/min/kg
- Fm [9]: 0.229
- fraction unbound (in vitro [10]): 0.871
- fraction unbound (in vitro [11]): 0.922
- clearance [12]: 1.9 mL/min/kg
- fraction unbound (in vitro [13]): 0.784

Compound: O=C1Nc2ccc(Cl)cc2C(c2ccccc2Cl)=NC1O (stereo not drawn) [LORAZEPAM]
- fraction unbound (in vitro [1]): 0.09
- Fm [2]: 0.785
- Fm [3]: 0.085
- half-life (clinical [4]): 12.4 h
- blood plasma ratio (in vitro [14]): 1.14
- blood plasma ratio (in vitro [15]): 1.09
- Fm [5]: 0.53
- fraction unbound (in vitro [16]): 0.158
- Fm [7]: 0.81
- CL/F [8]: 1.21 mL/min/kg
- Fm [9]: 0.436
- fraction unbound (in vitro [10]): 0.103
- fraction unbound (in vitro [11]): 0.073
- clearance [12]: 1.21 mL/min/kg
- blood plasma ratio (in vitro [17]): 0.77
- fraction unbound (in vitro [13]): 0.057
- blood plasma ratio (in vitro [18]): 0.92
- blood plasma ratio (in vitro [19]): 0.87

Compound: O=C(c1ccc(OCCN2CCCCC2)cc1)c1c(-c2ccc(O)cc2)sc2cc(O)ccc12 [RALOXIFENE]
- Fm [2]: 0.196
- t1/2 (Homo sapiens [20]): 36.9 h
- Fu (Plasma [21]): 0.004
- Fm [3]: 0.214
- Fm [5]: 0.38
- fraction unbound (in vitro [16]): 0.006
- Fm [7]: 0.9
- Vdss (Homo sapiens [22]): 47 L/kg
- Fm [9]: 0.243
- fraction unbound (in vitro [10]): 0.004
- fraction unbound (in vitro [11]): 0.003
- clearance [12]: 14.7 mL/min/kg
- fraction unbound (in vitro [13]): 0.002

Compound: COc1ccc2c(c1)c(CC(=O)O)c(C)n2C(=O)c1ccc(Cl)cc1 [INDOMETHACIN]
- fraction unbound (in vitro [1]): 0.004
- Fm [2]: 0.01
- Fm [3]: 0.004
- half-life (clinical [4]): 6.77 h
- blood plasma ratio (in vitro [14]): 0.98
- blood plasma ratio (in vitro [15]): 0.97
- Fm [5]: 0.94
- Vd (clinical [6]): 0.925 L/kg
- fraction unbound (in vitro [16]): 0.009
- Fm [7]: 0.217
- CL/F [8]: 1.58 mL/min/kg
- Fm [9]: 0.001
- Fu (Plasma [23]): 0.1
- fraction unbound (in vitro [10]): 0.005
- fraction unbound (in vitro [11]): 0.005
- clearance [12]: 1.58 mL/min/kg
- blood plasma ratio (in vitro [17]): 0.65
- blood plasma ratio (in vitro [18]): 0.46
- blood plasma ratio (in vitro [19]): 1.06

Compound: COc1c(C)c2c(c(O)c1C/C=C(\C)CCC(=O)O)C(=O)OC2 [MYCOPHENOLIC ACID]
- fraction unbound (in vitro [1]): 0.004
- Fm [2]: 0.99
- Fm [3]: 0.096
- half-life (clinical [4]): 16.6 h
- blood plasma ratio (in vitro [14]): 0.69
- blood plasma ratio (in vitro [15]): 0.94
- Fm [5]: 0.54
- Vd (clinical [6]): 4.75 L/kg
- fraction unbound (in vitro [16]): 0.028
- Fm [7]: 0.9
- CL/F [8]: 3.54 mL/min/kg
- Fm [9]: 0.966
- Fu (Plasma [23]): 0.003
- fraction unbound (in vitro [10]): 0.011
- fraction unbound (in vitro [11]): 0.003
- clearance [12]: 3.31 mL/min/kg
- blood plasma ratio (in vitro [17]): 0.75
- blood plasma ratio (in vitro [18]): 0.81
- blood plasma ratio (in vitro [19]): 0.97

Compound: Cc1cn([C@H]2C[C@H](N=[N+]=[N-])[C@@H](CO)O2)c(=O)[nH]c1=O [ZIDOVUDINE]
- fraction unbound (in vitro [1]): 0.734
- Fm [2]: 0.134
- Fm [3]: 0.02
- half-life (clinical [4]): 0.832 h
- Fm [5]: 0.08
- fraction unbound (in vitro [16]): 0.896
- Fm [7]: 0.85
- CL/F [8]: 33.3 mL/min/kg
- Fm [9]: 0.034
- fraction unbound (in vitro [11]): 0.827
- fraction unbound (in vitro [13]): 0.695
